Read-outs that look alike come from different tables or passages of the source.
How the values were obtained:
[1] = MTT cytotoxicity test of mannose-modified reactants
Method: The cytotoxicity test, MTT assay, was performed to define the concentration using TPCPD-M (57, 1 mM) and BCN-M (61, 1 mM) (FIG. 4).

TNF-α [2] = test: LPS-induced accumulation of TNF-α in RAW 264.7 culture supernatant (ELISA), two-component system; assay type: cell-based, mouse
Method: RAW264.7 cell were seeded in 6-well plates and incubated overnight. Cells were then stimulated with LPS (10 mg/mL) for 1 h. TPCPD (1) and BCN (6a) (different concentrations) were added to well after 1 hr LPS treatment (same for all wells). As a control, the product (31) was used at same concentration as the anti-inflammation test to confirm that the suppression of TNF-α is result of CO instead of the reagent (or product) themselves (compounds 1, 6a, and 31). TNF-α secretion in the medium was measured with an eBioscience kit (mouse TNF-α ELISA kit, eBioscience, San Diego, Calif., USA).
TNF-α is a major pro-inflammatory cytokine, mainly secreted from macrophages and dendritic cells. Its production is induced in vitro by stimulation with LPS. The accumulation of TNF-α was assessed by ELISA in the culture supernatant of the macrophage cell line, RAW 264.7 (FIG. 5). The cells were stimulated for 1 h and then co-treated by […] for 24 h. […] A 50% decrease of the LPS-induced accumulation of TNF-α was observed after co-treatment with TPCPD-M and BCN-M at the respective concentration of 1 mM+1 mM.

[3] = CO release kinetics by increase of fluorescence intensity; assay type: physicochemical
Method: Compound 10a was dissolved indifferent solvents including CH2Cl2 (25° C.), CH3CN (25° C.), DMSO (25° C.), DMSO/PBS (10:1, 25° C.), DMSO/PBS (5:1, 25° C.), and DMSO/PBS (5:1, 37° C.) to give a final concentration of around 100 μM, and CO release was monitored by fluorescence intensity at 450 nm. Each experiment was repeated three times independently. The CO release rate (first order reaction rate) in DCM, CH3CN, DMSO, DMSO/PBS (10:1), DMSO/PBS (5:1), and DMSO/PBS (5:1, 37° C.) were different and their individual rate constant was calculated to be 2.3±0.2, 3.6±0.4, 6.6±0.6, 7.7±0.6, 11.0±1.4 and 22.4±3.2 h^−1, respectively. […] The CO release rate increased along with the polarity of the solvent.

[4] = Fluorescence properties of the cycloaddition products; assay type: physicochemical
[5] = Intramolecular DAR in DMSO/PBS (7.4) at 37° C., time to completion; assay type: physicochemical
Method: A solution of compound 10b in DMSO/PBS (7.4) was incubated at 37° C. for 3 hrs, after which the intramolecular DAR reaction finished. Then the reaction mixture was extracted with ethyl acetate, and the obtained organic layer was dried with anhydrous Na2SO4, filtered and concentrated. Thus obtained pale yellow solid was characterized by ^1H NMR as the intramolecular DAR product. ^1H NMR (400 MHz, CDCl3): δ 9.27 (d, J=7.2 Hz, 1H), 7.88 (d, J=8.0 Hz, 1H), 7.79 (d, J=8.0 Hz, 1H), 7.71 (t, J=7.6 Hz, 1H), 7.61-7.53 (m, 5H), 7.32 (t, J=8.0 Hz, 1H), 7.08 (s, 1H), 7.04 (d, J=7.2 Hz, 1H), 5.37-5.18 (m, 1H), 3.53 (t, J=6.0 Hz, 2H), 3.05 (t, J=6.0 Hz, 2H), 1.32 (d, J=6.8 Hz, 6H).
A solution of compound 10b in DMSO/PBS (7.4) was incubated at 37° C. for 24 hrs, after which the intramolecular DAR reaction was finished. Then the reaction mixture was extracted with ethyl acetate, and the obtained organic layer was dried with anhydrous Na2SO4. Filtered and concentrated, the obtained pale yellow solid was characterized by ^1H NMR as the intramolecular DAR product. ^1H NMR (400 MHz, CDCl3) δ 9.12 (d, J=8.0 Hz, 1H), 7.83 (d, J=8.4 Hz, 1H), 7.73 (d, J=8.4 Hz, 1H), 7.68 (t, J=8.0 Hz, 1H), 7.63-7.54 (m, 3H), 7.36 (d, J=8.0 Hz, 2H), 7.24 (t, J=8.0 Hz, 1H), 6.32 (d, J=8.0 Hz, 1H), 5.29-5.26 (m, 1H), 3.57-3.46 (m, 2H), 3.05-2.94 (m, 2H), 2.12 (s, 3H), 1.33 (d, J=6.8 Hz, 6H). […]

[6] = Determination of CO release rates (fluorescence or UV absorbance); assay type: physicochemical; settings: DMSO/PBS (4:1) at 37° C.
Method: For CO prodrugs with naphthalene scaffold, the CO release rate is easily done by monitoring the fluorescence intensity of the cyclized product. For the others, the CO release rate was determined by employing the UV absorbance difference between the prodrugs and the cyclized product.

RAW 264.7 cells = test: Cytotoxicity of CO prodrugs and inactive products (MTT); assay type: cell-based, mouse; settings: 24 h incubation
Method: The toxicity of compound 10b and product of compound 10b (44b) after CO release were tested on RAW 264.7 cells, which is a mouse macrophage cell line used for anti-inflammation test. Different concentrations of 10b and 44b product were added into the cell culture media (Dulbecco's Modified Eagle's Medium supplemented with 10% heat inactivated fetal bovine serum and 1% penicillin-streptomycin). All samples with different concentrations of 10b or 44b product contained 1% DMSO in the cell culture media. RAW 264.7 cells were seeded in 96-well plate one day before the experiment. The cells were then incubated with the compound for 24 hours at 37° C. with 5% CO2. The cell viability was tested by MTT assay. Basically, after 24 hours of incubation, 0.5 mg/mL MTT (3-(4,5-Dimethylthiazol-2-yl)-2,5-Diphenyltetrazolium Bromide) was added into the cell culture and incubated for 4 hours. Thereafter, the supernatant was removed and 100 μL of DMSO were added into the wells containing cells. After shaking gently for 3 minutes, absorbance at 570 nm was read by plate reader.
(§1) 10a-10d, and 100 with different release rates were chosen to test their inhibitory effect against lipopolysaccharide (LPS) induced TNF-α secretion in RAW 264.7 cells. […] This was followed by the treatment of LPS for another 1 h. Then the cell culture supernatants were subjected to ELISA assay for TNF-α levels.

[7] = CO release kinetics by increase of fluorescence intensity; assay type: physicochemical; settings: PBS with 1% DMSO; 1% of DMSO in PBS (pH = 7.4); read-out: t1/2 half-life for CO release (converted)
TNF-α [8] = test: TNF-α ELISA in LPS treated RAW 264.7 cells pre-treated with CO prodrug; assay type: cell-based, mouse; settings: pre-treated 5 h, then LPS 1 h
Method: RAW 264.7 cells were seeded in the 48-well plate one day before the experiment.
LPS was used to initialize the inflammatory response in RAW 264.7 cells and trigger the expression of cytokines. RAW 264.7 cells were pre-treated with different concentrations of 10b or 44b product for 5 hours. Thereafter, […] LPS was added with into the cell culture media. For TNF-α test, the cell culture supernatant was collected after 1 hour of LPS treatment. For IL-6 test, the cell culture supernatant was collected after 4 hours of LPS treatment. Cell culture without LPS treatment was used as control.
as §1

[9] = test system: pulmonary arterial hypertension; settings: breathing CO gas (e.g., 150 ppm), after 16 weeks; cited from earlier work
[10] = of the cycloaddition products 44a-44f and 100a

O=C(NCCOCCOCCOC1OC(CO)C(O)C(O)C1O)OCC1[C@H]2CCC#CCC[C@@H]12 (some centres unmarked) [BCN-M]
cytotoxicity ([1]; 24 h of treatment, within 1 mM): none of the compounds led to any cytotoxicity
decrease of the LPS-induced accumulation of TNF-α (TNF-α [2]; co-treatment with TPCPD-M and BCN-M 1 mM+1 mM, 24 h): 50%
inhibition of the LPS-induced accumulation of TNF-α (TNF-α [2]; tested separately): do not lead to any inhibition

NCC(=O)O.[C-]#[O+].[C-]#[O+].[C-]#[O+].[Cl][Ru] [CORM3, reference compound]
decrease in cell viability ([1]; 1 mM): 30%

C#CCN(C)C(=O)C1=C2C(=C(c3ccccc3)C1=O)c1cccc3cccc2c13 [Compound 10a]
k CO release rate ([3]; CH2Cl2 at room temperature (25° C.)): 2.3 ± 0.2 h⁻¹
CO release rate constant (first order) ([3]; CH3CN (25° C.)): 3.6 ± 0.4 h⁻¹
CO release rate constant (first order) ([3]; DMSO (25° C.)): 6.6 ± 0.6 h⁻¹
CO release rate constant (first order) ([3]; DMSO/PBS (5:1, 25° C.)): 11.0 ± 1.4 h⁻¹
CO release rate constant (first order) ([3]; DMSO/PBS (10:1, 25° C.)): 7.7 ± 0.6 h⁻¹
k CO release rate ([3]; DMSO/PBS (pH = 7.4) 5:1 at 37° C.): 22.4 ± 3.2 h⁻¹
λem emission wavelength [4, 10]: 450 nm
λex excitation wavelength [4, 10]: 371 nm
Φ quantum yield ([4]; of the cycloaddition products 44a-44f and 100a in MeOH, quinine sulfate as the standard): 0.21
incubation time after which the intramolecular DAR reaction was finished [5]: 5 min

C#CCOc1ccccc1C1=C2C(=C(C(=O)N3CCOCC3)C1=O)c1cccc3cccc2c13 [Compound 51]
K CO release [6]: 0.31 ± 0.003 h⁻¹
incubation time after which the intramolecular DAR reaction was finished [5]: 960 min

C#CCCN(CCOC1OC(CO)C(O)C(O)C1O)C(=O)C1=C2C(=C(c3ccccc3)C1=O)c1cccc3cccc2c13 (centres unmarked) [Compound 100]
K CO release [6]: 0.33 ± 0.01 h⁻¹
effect on cell viability (RAW 264.7 cells): did not show any effect on cell viability at up to 50 μM
half-life [7]: 0.18 h
half-life ([3]; DMSO/PBS 5:1, DMSO/PBS (pH = 7.4) 5:1 at 37° C., read-out: t1/2 half-life for CO release (converted)): 2.1 h

O=C1c2c(cc(-c3ccccc3)c3c2-c2cccc4cccc-3c24)CCN1CCOC1OC(CO)C(O)C(O)C1O (centres unmarked) [Compound 100a]
effect on cell viability (RAW 264.7 cells): did not show any effect on cell viability at up to 50 μM
LPS-induced TNF-α expression / secretion (TNF-α [8]): dose-dependently inhibited

carbon monoxide [CO]
decrease of pulmonary vascular resistance compared to the pre-therapy value [9]: 20%

Source: US11420994B2, “Carbon-monoxide-releasing molecules and therapeutic applications thereof” (GEORGIA STATE UNIVERSITY RESEARCH FOUNDATION, INC., priority 2016, dated 2022)
